Test results from patent publication US20190008154A1 (priority 2015, published 2019).
“And” between values parts separate entries of the source, which are not always exact repeats. Equal values may be shown once.

System: P[…] (PYRIOR)
Design: species or system Pyricularia oryzae
Conditions: in vivo

Q: With `Cc1cccc2sc3nncn3c12` [TCA, 5-methyl-1,2,4-triazolo[3,4-b][1,3]benzothiazole] as the compound, how does the “PYRIOR (% DC) Observed” value read?
A: 100% and 95% and 50.2%
